Assay: Solubility in solvents
Assay type: physicochemical

Solubility (in DMF): soluble
Solubility (in ethanol): soluble
Solubility (in hexane): insoluble
Solubility (in methanol): soluble
Solubility (in water): insoluble
Compound: CC1(C)CC(NC(=O)c2ccc(C(=O)NC3CC(C)(C)NC(C)(C)C3)o2)CC(C)(C)N1 [Example 2, N,N′-bis(2,2,6,6-tetramethyl-4-piperidinyl)-2,5-furandicarboxamide]

Source: US20160176855A1, “Novel Sterically Hindered Cyclic Amines” (CLARIANT INTERNATIONAL LTD, priority 2013, published 2016)
